IC50 data for eight compounds are collected here from ChEMBL document CHEMBL1134257, “Probing the transducin nucleotide binding site with GDP analogues” (Bioorg Med Chem Lett, 2001).

The nature of this assay: Inhibitory concentration for heterotrimeric G protein, transducer.
Broadly, the IC50 is the point on the concentration scale where inhibition reaches its midpoint. Read a high IC50 as lower potency. `CCC(=O)O[C@H]1[C@@H](O)[C@H](n2cnc3c(O)nc(N)nc32)O[C@@H]1COP(=O)(O)NP(=O)(O)O` showed an IC50 of 500 µM.

The compound `NCCOCCOc1nc(N)nc2c1ncn2C1O[C@H](COP(=O)(O)NP(=O)(O)O)[C@@H](O)[C@H]1O` (stereo partly drawn) came in with an IC50 above 1000 µM. `Nc1nc(O)c2ncn(C3O[C@H](COP(=O)(O)NP(=O)(O)O)[C@@H](O)[C@H]3O)c2n1` (stereo partly drawn) returned an IC50 of 12 µM.

`NCCOCCOCCn1c(N)nc2c(ncn2C2O[C@H](COP(=O)(O)NP(=O)(O)O)[C@@H](O)[C@H]2O)c1=O` (stereo partly drawn) showed an IC50 above 1000 µM. `Nc1nc2c(ncn2[C@@H]2O[C@H](COC(=O)CP(=O)(O)O)C(O)C2O)c(=O)[nH]1` (single isomer, unassigned) gave an IC50 above 1000 µM.

`Nc1nc(O)c2ncn(C3O[C@H](COP(=O)(O)CC(=O)O)C(O)C3O)c2n1` (single isomer, unassigned) gave an IC50 above 1000 µM. In the case of `Nc1nc(O)c2ncn(C3O[C@H](COC(=O)CC(=O)O)C(O)C3O)c2n1` (single isomer, unassigned), the IC50 was above 1000 µM. To `Nc1nc2c(ncn2[C@@H]2O[C@H](COP(=O)(O)CP(=O)(O)O)C(O)C2O)c(=O)[nH]1` (single isomer, unassigned) [PHOSPHOMETHYLPHOSPHONIC ACID GUANOSYL ESTER] belongs above 1000 µM.
